One assay has as its target T1, Nav1.7 (or SCN9A) channel; HEK cells stably transfected with hSCN9A (Homo sapiens, UniProt Q15858).
T1 construct: expressed in transfected cells
Put plainly: Nav1.7 block, PatchXpress 7000 automated whole-cell voltage clamp, estimated IC50 (EIC50). It is filed as cell-based. Particulars: PatchXpress platform; hSCN9A HEK cells held at V1/2 of inactivation; estimated IC50.
T1 sequence (Q15858 whole entry): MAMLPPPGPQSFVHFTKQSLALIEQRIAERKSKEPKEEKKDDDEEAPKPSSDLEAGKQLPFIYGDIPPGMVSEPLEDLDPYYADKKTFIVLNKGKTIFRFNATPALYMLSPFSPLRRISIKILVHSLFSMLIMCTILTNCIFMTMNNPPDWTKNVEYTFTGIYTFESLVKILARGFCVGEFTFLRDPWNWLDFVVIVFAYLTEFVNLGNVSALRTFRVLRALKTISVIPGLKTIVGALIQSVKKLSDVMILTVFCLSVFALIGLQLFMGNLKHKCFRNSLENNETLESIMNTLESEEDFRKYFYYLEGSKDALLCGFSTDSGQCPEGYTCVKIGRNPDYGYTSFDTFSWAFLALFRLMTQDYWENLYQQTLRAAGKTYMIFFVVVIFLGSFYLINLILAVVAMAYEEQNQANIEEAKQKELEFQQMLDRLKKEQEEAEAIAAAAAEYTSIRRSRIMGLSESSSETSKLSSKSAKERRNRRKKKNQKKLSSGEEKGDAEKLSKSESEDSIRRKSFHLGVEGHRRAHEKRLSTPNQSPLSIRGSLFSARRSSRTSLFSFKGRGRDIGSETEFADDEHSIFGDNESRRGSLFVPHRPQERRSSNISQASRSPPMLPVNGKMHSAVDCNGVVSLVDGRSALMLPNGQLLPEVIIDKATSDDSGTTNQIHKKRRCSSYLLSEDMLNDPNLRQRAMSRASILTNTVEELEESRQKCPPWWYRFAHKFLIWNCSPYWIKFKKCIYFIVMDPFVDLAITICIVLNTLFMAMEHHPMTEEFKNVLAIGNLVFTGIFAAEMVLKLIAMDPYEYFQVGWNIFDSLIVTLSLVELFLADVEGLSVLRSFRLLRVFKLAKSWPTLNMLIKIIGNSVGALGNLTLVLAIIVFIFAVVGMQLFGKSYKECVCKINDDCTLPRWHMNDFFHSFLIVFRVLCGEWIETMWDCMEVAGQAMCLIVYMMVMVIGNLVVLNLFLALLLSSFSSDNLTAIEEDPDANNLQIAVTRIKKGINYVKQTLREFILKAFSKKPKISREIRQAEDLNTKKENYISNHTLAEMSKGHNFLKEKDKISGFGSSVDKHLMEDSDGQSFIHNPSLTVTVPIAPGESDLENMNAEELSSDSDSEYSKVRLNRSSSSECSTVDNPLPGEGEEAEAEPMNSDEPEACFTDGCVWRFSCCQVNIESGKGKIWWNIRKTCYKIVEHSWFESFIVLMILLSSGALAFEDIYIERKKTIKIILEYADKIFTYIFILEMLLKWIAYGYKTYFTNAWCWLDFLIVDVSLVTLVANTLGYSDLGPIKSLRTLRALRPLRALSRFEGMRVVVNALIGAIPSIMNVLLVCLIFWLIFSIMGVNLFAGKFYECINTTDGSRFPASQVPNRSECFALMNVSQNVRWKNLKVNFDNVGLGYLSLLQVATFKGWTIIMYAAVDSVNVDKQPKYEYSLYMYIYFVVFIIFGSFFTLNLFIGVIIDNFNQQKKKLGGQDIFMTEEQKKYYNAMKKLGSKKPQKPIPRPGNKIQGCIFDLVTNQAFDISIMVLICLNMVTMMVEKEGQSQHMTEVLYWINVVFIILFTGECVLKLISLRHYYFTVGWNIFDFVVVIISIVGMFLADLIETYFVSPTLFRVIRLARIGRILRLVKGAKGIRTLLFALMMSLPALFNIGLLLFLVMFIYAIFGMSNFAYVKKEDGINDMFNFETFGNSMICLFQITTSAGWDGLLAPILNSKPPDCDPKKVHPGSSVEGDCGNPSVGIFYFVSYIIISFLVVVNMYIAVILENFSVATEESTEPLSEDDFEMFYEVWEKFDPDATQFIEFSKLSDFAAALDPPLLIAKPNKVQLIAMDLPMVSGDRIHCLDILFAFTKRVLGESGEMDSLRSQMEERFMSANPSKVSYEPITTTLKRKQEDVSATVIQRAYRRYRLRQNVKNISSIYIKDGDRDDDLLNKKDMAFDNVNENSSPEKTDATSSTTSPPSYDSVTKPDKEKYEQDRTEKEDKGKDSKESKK
Regarding `N#Cc1cc(S(=O)(=O)Nc2nccs2)ccc1Oc1cc(-c2ccc(Cl)cc2)nn1CC(F)(F)F` [Example 189, 4-[5-(4-chloro-phenyl)-2-(2,2,2-trifluoro-ethyl)-2H-pyrazol-3-yloxy]-3-cyano-N-thiazol-2-yl-benzenesulfonamide], the half-inhibitory concentration (IC50) was 2800 nM.

In the case of `N#Cc1cc(S(=O)(=O)Nc2ncns2)ccc1Oc1ccccc1-c1ccccc1F` [Example 50, 3-cyano-4-[(2′-fluorobiphenyl-2-yl)oxy]-N-1,2,4-thiadiazol-5-ylbenzenesulfonamide], the IC50 is 840 nM.

With `O=S(=O)(Nc1ncns1)c1ccc(Oc2cc(C(F)(F)F)nn2-c2ccccc2F)c(F)c1` [Example 255, 3-fluoro-4-[2-(2-fluoro-phenyl)-5-trifluoromethyl-2H-pyrazol-3-yloxy]-N-1,2,4-thiadiazol-5-yl-benzenesulfonamide], the IC50 is 490 nM.

Consider `O=S(=O)(Nc1ncns1)c1cc(F)c(Oc2ccccc2-c2ccccc2)cc1Cl` [Example 267, 4-(biphenyl-2-yloxy)-2-chloro-5-fluoro-N-1,2,4-thiadiazol-5-ylbenzenesulfonamide], for which the concentration for half-maximal inhibition (IC50) was 190 nM.

Consider `N#Cc1cc(S(=O)(=O)Nc2ncc(Cl)s2)ccc1Oc1ccccc1OCc1ccccc1` [Example 136, 4-[2-(benzyloxy)phenoxy]-N-(5-chloro-1,3-thiazol-2-yl)-3-cyanobenzenesulfonamide], for which the IC50 was 2700 nM.

With `Cn1nccc1-c1cc(Cl)ccc1Oc1ccc(S(=O)(=O)Nc2cscn2)cc1F` [Example 272, 4-[4-chloro-2-(2-methyl-2H-pyrazol-3-yl)-phenoxy]-3-fluoro-N-thiazol-4-yl-benzenesulfonamide], the IC50 is 810 nM.

For the compound `NC(=O)c1cc(S(=O)(=O)Nc2nccs2)ccc1Oc1ccccc1-c1ccccc1` [Example 250, 2-(biphenyl-2-yloxy)-5-(N-thiazol-2-ylsulfamoyl)benzamide], the IC50 was 1850 nM.

For the compound `COc1ccc(-c2ccccc2Oc2ccc(S(=O)(=O)Nc3ncns3)cc2C#N)c(C)c1` [Example 10, 3-cyano-4-[(4′-methoxy-2′-methylbiphenyl-2-yl)oxy]-N-1,2,4-thiadiazol-5-ylbenzenesulfonamide], the half-inhibitory concentration (IC50) was 630 nM.

For the compound `Cc1snnc1NS(=O)(=O)c1ccc(Oc2ccccc2-c2ccccc2)c(C#N)c1` [Example 112, 4-(biphenyl-2-yloxy)-3-cyano-N-(5-methyl-1,2,3-thiadiazol-4-yl)benzenesulfonamide], the 50% inhibitory concentration (IC50) is 33700 nM.

The assay is the same for the next values; noted with them: estimated IC50; hSCN9A HEK cells, PatchXpress platform; Examples 283-814.
For `CC(C)(C)NC(=O)c1cnn(-c2ccc(Oc3ccc(S(=O)(=O)Nc4nccs4)cc3C#N)cc2)c1` [Example 378, N-tert-butyl-1-(4-{2-cyano-4-[(1,3-thiazol-2-ylamino)sulfonyl]phenoxy}phenyl)-1H-pyrazole-4-carboxamide], the IC50 was over 1000 nM.

With `Cc1ccnc(-c2ccc(Oc3ccc(S(=O)(=O)Nc4nccs4)cc3C#N)cc2)c1` [Example 450, 3-cyano-4-[4-(4-methylpyridin-2-yl)phenoxy]-N-1,3-thiazol-2-ylbenzenesulfonamide], the concentration for half-maximal inhibition (IC50) was 3400 nM.

Turning to `O=S(=O)(Nc1cscn1)c1cc(F)c(Oc2ccc(OC(F)(F)F)cc2-c2cn[nH]c2)cc1F` [Example 750, 2,5-difluoro-4-[2-(1H-pyrazol-4-yl)-4-(trifluoromethoxy)phenoxy]-N-1,3-thiazol-4-ylbenzenesulfonamide], the IC50 was 210 nM.

As for `O=S(=O)(Nc1ccc(F)cn1)c1cc(F)c(Oc2ccc(C(F)(F)F)cc2C2CCNCC2)cc1F` [Example 666, 2,5-Difluoro-N-(5-fluoropyridin-2-yl)-4-[2-piperidin-4-yl-4-(trifluoromethyl)phenoxy]benzenesulfonamide], the concentration for half-maximal inhibition (IC50) was 270 nM.

Take `N#Cc1cnc(NS(=O)(=O)c2ccc(Oc3ccccc3-c3ccccc3)c(C#N)c2)nc1` [Example 432, 4-(biphenyl-2-yloxy)-3-cyano-N-(5-cyanopyrimidin-2-yl)benzenesulfonamide]: the concentration for half-maximal inhibition (IC50) is over 10000 nM.

On to `N#Cc1cc(S(=O)(=O)Nc2nccs2)ccc1Oc1ccc(-c2cc(C(F)(F)F)n(CCCF)n2)cc1F` [Example 480, 3-cyano-4-{2-fluoro-4-[1-(3-fluoropropyl)-5-(trifluoromethyl)-1H-pyrazol-3-yl]phenoxy}-N-1,3-thiazol-2-ylbenzenesulfonamide], for which the IC50 was over 1000 nM.

As for `N#Cc1cc(S(=O)(=O)Nc2ncns2)ccc1Oc1cc(Cl)c(F)cc1-c1ccn[nH]1` [Example 751, 4-[5-chloro-4-fluoro-2-(1H-pyrazol-5-yl)phenoxy]-3-cyano-N-1,2,4-thiadiazol-5-ylbenzenesulfonamide], the IC50 is 13 nM.

Take `N#Cc1cc(S(=O)(=O)Nc2ncns2)ccc1Oc1ccc(I)cc1-c1ccn[nH]1` [Example 506, 3-cyano-4-[4-iodo-2-(1H-pyrazol-5-yl)phenoxy]-N-1,2,4-thiadiazol-5-ylbenzenesulfonamide]: the 50% inhibitory concentration (IC50) is 11 nM.

As for `Cn1ccc(-c2ccc(F)cc2Oc2ccc(S(=O)(=O)Nc3nccs3)cc2C#N)n1` [Example 494, 3-cyano-4-[5-fluoro-2-(1-methyl-1H-pyrazol-3-yl)phenoxy]-N-1,3-thiazol-2-ylbenzenesulfonamide], the IC50 was 2500 nM.

In the case of `Cn1ncnc1-c1cc(Cl)ccc1Oc1ccc(S(=O)(=O)Nc2ncc(F)s2)cc1F` [Example 349, 4-[4-chloro-2-(1-methyl-1H-1,2,4-triazol-5-yl)phenoxy]-3-fluoro-N-(5-fluoro-1,3-thiazol-2-yl)benzenesulfonamide], the IC50 is over 1000 nM.

For `Cn1nccc1-c1ccc(Oc2ccc(S(=O)(=O)Nc3nccs3)cc2C#N)cn1` [Example 645, 3-cyano-4-{[6-(1-methyl-1H-pyrazol-5-yl)pyridin-3-yl]oxy}-N-1,3-thiazol-2-ylbenzenesulfonamide], the IC50 is over 1000 nM.

On to `Nc1cc(-c2cc(C(F)(F)F)ccc2Oc2cc(F)c(S(=O)(=O)Nc3ncns3)cc2Cl)ccn1` [Example 557, 4-[2-(2-aminopyridin-4-yl)-4-(trifluoromethyl)phenoxy]-5-chloro-2-fluoro-N-1,2,4-thiadiazol-5-ylbenzenesulfonamide], for which the IC50 is 0.8 nM.

For the compound `N#Cc1cc(S(=O)(=O)Nc2ncc(Cl)s2)ccc1Oc1ccc(C(F)(F)F)cc1-c1cn[nH]c1` [Example 590, N-(5-Chloro-1,3-thiazol-2-yl)-3-cyano-4-[2-(1H-pyrazol-4-yl)-4-(trifluoromethyl)phenoxy]benzenesulfonamide], the IC50 is 53 nM.

Turning to `CCn1nc(C(F)(F)F)cc1-c1cccc(Oc2ccc(S(=O)(=O)Nc3nc(C)ns3)cc2C#N)c1` [Example 290, 3-cyano-4-{3-[1-ethyl-3-(trifluoromethyl)-1H-pyrazol-5-yl]phenoxy}-N-(3-methyl-1,2,4-thiadiazol-5-yl)benzenesulfonamide], the half-maximal inhibitory concentration (IC50) was 2000 nM.

In the case of `N#Cc1cc(S(=O)(=O)Nc2nccs2)ccc1Oc1cccc(-c2cccc(C(F)(F)F)n2)c1` [Example 448, 3-cyano-N-1,3-thiazol-2-yl-4-{3-[6-(trifluoromethyl)pyridin-2-yl]phenoxy}benzenesulfonamide], the 50% inhibitory concentration (IC50) was 2000 nM.

On to `N#Cc1cc(S(=O)(=O)Nc2nccs2)ccc1Oc1cc(Cl)ccc1-c1ccn[nH]1` [Example 711, 4-[5-chloro-2-(1H-pyrazol-5-yl)phenoxy]-3-cyano-N-1,3-thiazol-2-ylbenzenesulfonamide], for which the IC50 was 40 nM.

Regarding `Nc1cccc(-c2cc(F)ccc2Oc2cc(F)c(S(=O)(=O)Nc3ncns3)cc2F)n1` [Example 407, 4-[2-(6-aminopyridin-2-yl)-4-fluorophenoxy]-2,5-difluoro-N-1,2,4-thiadiazol-5-ylbenzenesulfonamide], the IC50 was 190 nM.

On to `N#Cc1cc(S(=O)(=O)Nc2nccs2)ccc1Oc1ccc(Cl)cc1-c1ccn[nH]1` [Example 709, 4-[4-chloro-2-(1H-pyrazol-5-yl)phenoxy]-3-cyano-N-1,3-thiazol-2-ylbenzenesulfonamide], for which the IC50 is 14 nM.

With `N#Cc1cc(S(=O)(=O)Nc2nccc(C(F)(F)F)n2)ccc1Oc1ccccc1-c1ccccc1` [Example 434, 4-(biphenyl-2-yloxy)-3-cyano-N-[4-(trifluoromethyl)pyrimidin-2-yl]benzenesulfonamide], the IC50 is 18000 nM.

The assay is the same for the next values; noted with them: estimated IC50; hSCN9A HEK cells, PatchXpress platform; Examples 815-1040.
In the case of `CCOC(=O)c1cnn(-c2ccc(Oc3ccc(S(=O)(=O)Nc4nccs4)cc3C#N)cc2)c1` [Example 996, ethyl 1-(4-{2-cyano-4-[(1,3-thiazol-2-ylamino)sulfonyl]phenoxy}phenyl)-1H-pyrazole-4-carboxylate], the IC50 is 760 nM.

For the compound `O=S(=O)(Nc1nncs1)c1cc(Cl)c(Oc2cc(C(F)(F)F)c(F)cc2-c2ccnnc2)cc1F` [Example 947, 5-chloro-2-fluoro-4-[4-fluoro-2-pyridazin-4-yl-5-(trifluoromethyl)phenoxy]-N-1,3,4-thiadiazol-2-ylbenzenesulfonamide], the IC50 is 23 nM.

`N#Cc1cc(S(=O)(=O)Nc2ncns2)ccc1Oc1ccc(Cl)cc1-c1ccnnc1` [Example 868, 4-(4-chloro-2-pyridazin-4-ylphenoxy)-3-cyano-N-1,2,4-thiadiazol-5-ylbenzenesulfonamide]: the IC50 is 15 nM.

Consider `COc1nccnc1NS(=O)(=O)c1ccc(Oc2ccc(Cl)cc2-c2ccnn2C)c(C#N)c1` [Example 916, 4-[4-chloro-2-(1-methyl-1H-pyrazol-5-yl)phenoxy]-3-cyano-N-(3-methoxypyrazin-2-yl)benzenesulfonamide], for which the IC50 was over 10000 nM.

On to `Cc1nccnc1-c1cc(Cl)ccc1Oc1ccc(S(=O)(=O)Nc2ncns2)cc1C#N` [Example 1010, 4-[4-chloro-2-(3-methylpyrazin-2-yl)phenoxy]-3-cyano-N-1,2,4-thiadiazol-5-ylbenzenesulfonamide], for which the half-inhibitory concentration (IC50) was 820 nM.

For `Nc1cc(-c2cc(C(F)(F)F)ccc2Oc2ccc(S(=O)(=O)Nc3ccncn3)cc2Cl)ccn1` [Example 1013, 4-[2-(2-aminopyridin-4-yl)-4-(trifluoromethyl)phenoxy]-3-chloro-N-pyrimidin-4-ylbenzenesulfonamide], the 50% inhibitory concentration (IC50) was 4.8 nM.

As usually defined, the IC50 is the concentration at which inhibition is half-maximal.

(Values after patent US8541588B2, “Sulfonamide derivatives” (Pfizer Limited, priority 2009, dated 2013).)
